Data: patent US12660819B2, “Herbicidal derivatives” (SYNGENTA CROP PROTECTION AG, priority 2020, dated 2026)

Key:
Type in all cases: in vivo
[1] = system: Abutilon theophrasti (ABUTH); experiment: Post-emergence Test (glasshouse, percentage damage to the plant); conditions: post-emergence spray, 1000 g/ha unless otherwise stated, evaluated after 13 days
Procedure, shortened: (§1)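 Seeds sown in standard soil in a glasshouse (24/16 °C day/night, 14 h light, 65% humidity), then sprayed with an aqueous solution of the compound formulated in acetone/water 50:50 with 0.5% Tween 20 at 1000 g/ha unless otherwise stated. Percentage damage was scored after 13 days on a five-point scale (5=81-100%; 1=0-20%).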

[2] = system: Amaranthus retoflexus (AMARE); experiment: as above; conditions: post-emergence spray, 1000 g/ha unless otherwise stated, evaluated after 13 days
Procedure, shortened: as §1

[3] = system: Echinochloa crus-galli (ECHCG); experiment: as above; conditions: post-emergence spray, 1000 g/ha unless otherwise stated, evaluated after 13 days
Procedure, shortened: as §1

[4] = system: Ipomoea hederacea (IPOHE); experiment: as above; conditions: post-emergence spray, 1000 g/ha unless otherwise stated, evaluated after 13 days
Procedure, shortened: (§2)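 After sowing in standard soil, pots were kept at 24/16 °C (day/night), 14 h light and 65% humidity. They were sprayed at 1000 g/ha unless otherwise stated, watered twice daily, and assessed for percentage damage at 13 days on a 1–5 scale.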

Setaria faberi (SETFA) [5] = experiment: as above; conditions: post-emergence spray, 1000 g/ha unless otherwise stated, evaluated after 13 days
Procedure, shortened: as §2

Zea mays (ZEAMX) [6] = experiment: as above; conditions: post-emergence spray, 1000 g/ha unless otherwise stated, evaluated after 13 days
Procedure, shortened: as §2

[7] = system: Amaranthus retoflexus (AMARE); experiment: Pre-emergence Test (glasshouse, percentage damage to the plant); conditions: 1000 g/ha unless otherwise stated, five-point scale
Setaria faberi (SETFA) [8] = experiment: as above; conditions: 1000 g/ha unless otherwise stated, five-point scale
[9] = system: Echinochloa crus-galli (ECHCG); experiment: as above; conditions: 1000 g/ha unless otherwise stated, five-point scale
[10] = system: Ipomoea hederacea (IPOHE); experiment: as above; conditions: 1000 g/ha unless otherwise stated, five-point scale
[11] = system: Abutilon theophrasti (ABUTH); experiment: as above; conditions: 1000 g/ha unless otherwise stated, five-point scale
Zea mays (ZEAMX) [12] = experiment: as above; conditions: 1000 g/ha unless otherwise stated, five-point scale

SMILES: CCOc1cc(-c2c(C)n(CC)c(-c3ccc(Cl)c(Cl)c3)c(C(=O)O)c2=O)ccc1C#N [Compound 107, 5-(4-cyano-3-ethoxy-phenyl)-2-(3,4-dichlorophenyl)-1-ethyl-6-methyl-4-oxo-pyridine-3-carboxylic acid]
- Post-emergence Test ABUTH, percentage damage to the plant (five-point scale) [1]: 3 (3=41-60%)
- Post-emergence Test AMARE, percentage damage to the plant (five-point scale) [2]: 4 (4=61-80%)
- Post-emergence Test ECHCG, percentage damage to the plant (five-point scale) [3]: 2 (2=21-40%)
- Post-emergence Test IPOHE, percentage damage to the plant (five-point scale) [4]: 3 (3=41-60%)
- Post-emergence Test SETFA, percentage damage to the plant (five-point scale) (Setaria faberi (SETFA) [5]): 2 (2=21-40%)
- Post-emergence Test ZEAMX, percentage damage to the plant (five-point scale) (Zea mays (ZEAMX) [6]): 2 (2=21-40%)
- percentage damage to the plant, AMARE [7]: 4 (4=61-80%)
- percentage damage to the plant, SETFA (Setaria faberi (SETFA) [8]): 5 (5=81-100%)
- percentage damage to the plant, ECHCG [9]: 4 (4=61-80%)
- percentage damage to the plant, IPOHE [10]: 1 (1=0-20%)
- percentage damage to the plant, ABUTH [11]: 1 (1=0-20%)
- percentage damage to the plant, ZEAMX (Zea mays (ZEAMX) [12]): 1 (1=0-20%)

SMILES: CCn1c(C)c(-c2ccc(OC)c(C(F)(F)F)c2)c(=O)c(C(=O)O)c1-c1ccc(Cl)c(Cl)c1 [Compound 81, 2-(3,4-dichlorophenyl)-1-ethyl-5-[4-methoxy-3-(trifluoromethyl)phenyl]-6-methyl-4-oxo-pyridine-3-carboxylic acid]
- Post-emergence Test ABUTH, percentage damage to the plant (five-point scale) [1]: 3 (3=41-60%)
- Post-emergence Test AMARE, percentage damage to the plant (five-point scale) [2]: 2 (2=21-40%)
- Post-emergence Test ECHCG, percentage damage to the plant (five-point scale) [3]: 3 (3=41-60%)
- Post-emergence Test IPOHE, percentage damage to the plant (five-point scale) [4]: 2 (2=21-40%)
- Post-emergence Test SETFA, percentage damage to the plant (five-point scale) (Setaria faberi (SETFA) [5]): 3 (3=41-60%)
- Post-emergence Test ZEAMX, percentage damage to the plant (five-point scale) (Zea mays (ZEAMX) [6]): 1 (1=0-20%)
- percentage damage to the plant, AMARE [7]: 1 (1=0-20%)
- percentage damage to the plant, SETFA (Setaria faberi (SETFA) [8]): 4 (4=61-80%)
- percentage damage to the plant, ECHCG [9]: 1 (1=0-20%)
- percentage damage to the plant, IPOHE [10]: 1 (1=0-20%)
- percentage damage to the plant, ABUTH [11]: 1 (1=0-20%)
- percentage damage to the plant, ZEAMX (Zea mays (ZEAMX) [12]): 1 (1=0-20%)

SMILES: CCn1c(C)c(-c2ccc(OC)c(Cl)c2)c(=O)c(C(=O)O)c1-c1ccc(Cl)c(Cl)c1 [Compound 101, 5-(3-chloro-4-methoxy-phenyl)-2-(3,4-dichlorophenyl)-1-ethyl-6-methyl-4-oxo-pyridine-3-carboxylic acid]
- Post-emergence Test ABUTH, percentage damage to the plant (five-point scale) [1]: 3 (3=41-60%)
- Post-emergence Test AMARE, percentage damage to the plant (five-point scale) [2]: 3 (3=41-60%)
- Post-emergence Test ECHCG, percentage damage to the plant (five-point scale) [3]: 3 (3=41-60%)
- Post-emergence Test IPOHE, percentage damage to the plant (five-point scale) [4]: 2 (2=21-40%)
- Post-emergence Test SETFA, percentage damage to the plant (five-point scale) (Setaria faberi (SETFA) [5]): 3 (3=41-60%)
- Post-emergence Test ZEAMX, percentage damage to the plant (five-point scale) (Zea mays (ZEAMX) [6]): 2 (2=21-40%)
- percentage damage to the plant, AMARE [7]: 2 (2=21-40%)
- percentage damage to the plant, SETFA (Setaria faberi (SETFA) [8]): 4 (4=61-80%)
- percentage damage to the plant, ECHCG [9]: 2 (2=21-40%)
- percentage damage to the plant, IPOHE [10]: 1 (1=0-20%)
- percentage damage to the plant, ABUTH [11]: 2 (2=21-40%)
- percentage damage to the plant, ZEAMX (Zea mays (ZEAMX) [12]): 2 (2=21-40%)
